Results from US20240343732A1, “COMPOUNDS FOR DEGRADATION OF CYCLIN-DEPENDENT KINASE 7(CDK7)” (QURIENT CO., LTD., priority 2021, published 2024).

How the values were obtained:
CDK7/CycH/MNAT1 = molecular target: T1, CDK7/CycH/MNAT1 (Homo sapiens, UniProt P50613); experiment: Binding assay (FRET, LanthaScreen Eu, Tracer236) for CDK7; conditions: read-out: CDK7 IC50 (enzyme binding assay)
T1 construct: His; purchased Invitrogen PR6749B
Procedure: (§1) Inhibition activity of compound to CDK7 kinase was tested in a binding assay which was applied to the FRET (fluorescence resonance energy transfer) principle from the europium (Eu) donor fluorophore to the acceptor fluorophore on the kinase tracer. Test compounds were made to 1.125 mM of compound solution, and then this compound solution 4-fold serial diluted in 8 steps using an automated liquid handler (JANUS™, PerkinElmer). 80 nL/well of each diluted compound solution was added into the 384-well plate (Greiner, Cat #784075) first and 7.5 ul/well of working solution [5 nM of CDK7/CycH/MNAT1 (Invitrogen, Cat #PR6749B), 4 nM of Biotin anti-His Tag Antibody (Invitrogen, Cat #PV6090), and LanthaScreen® Eu-Streptavidin (Invitrogen, Cat #PV6025)] was added. After mixing the solution well, the same volume with the working solution of Tracer236 (Invitrogen, Cat #PV5592) was added into each well in the plate. The plate was incubated for 60 minutes at room temperature and then all the fluorescence were measured using Envision leader (Perkin Elmer, USA) [Laser as excitation light; […] as the first and the second emission filter]. Data was analysed using XL Fit software.
(§2) All of the synthesized compounds were screened in the above-mentioned assay procedure. To identify the inhibition activity of compounds for other CDKs including CDK1 (Invitrogen, Cat #PR4768C), CDK2 (Invitrogen, Cat #PR4448B) and CDK5 (Invitrogen, Cat #PR8543B) were tested using the same protocol under reasonable concentration of Tracer236 and kinases for each assay. The formula for the assay buffer summarized in below table.

CDK1 = molecular target: T2, CDK1 (Homo sapiens, UniProt P06493); experiment: Binding assay (FRET, LanthaScreen Eu, Tracer236) for CDK1; conditions: for IC50: read-out: CDK1 IC50 (enzyme binding assay)
T2 construct: His; purchased Invitrogen PR4768C
Procedure: as §1, §2

CDK2 = molecular target: T3, CDK2 (Homo sapiens, UniProt P24941); experiment: Binding assay (FRET, LanthaScreen Eu, Tracer236) for CDK2; conditions: for IC50: read-out: CDK2 IC50 (enzyme binding assay)
T3 construct: His; purchased Invitrogen PR4448B
Procedure: as §1, §2

CDK7 protein = molecular target: T4, CDK7 protein (Homo sapiens, UniProt P50613); experiment: Western blot assay for CDK7 protein degradation in A2780 cells; format: cell-based; conditions: 24 hours;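 also: A is DC50 up to 100 nM B is 100 to 1000 nM C is above 1000 nM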
T4 construct: To verify endogenous CDK7 protein degradation; endogenous in cells; host or cells: A2780 (ECACC 93112519)
Procedure: Human ovarian cancer cell line, A2780 (Cat #93112519) was obtained from ECACC. Cells were grown in RPMI-1640 media (Invitrogen, Cat #22400105) supplemented with 10% FBS (Hyclone, Cat #SH30084.03) and 1% penicillin/streptomycin (Hyclone, Cat #SV30010) and cultured at 37° C., 5% Co2 in a humidified chamber. All cell lines were routinely tested for mycoplasma.
To verify endogenous CDK7 protein degradation upon treatment of CDK7-specific degrader, the western blot assay was conducted a 24 hours' time period. 6×10^5 cells/well of A2780 cells were plated in 6-well plate. After 24 hours, the cells were treated with various concentrations of the compound corresponding range. DMSO solvent without compound served as a control and final DMSO concentration was not to exceed 0.1% of total volume. After 24 hours of incubation at 37° C., 5% Co2 incubator, cells were collected and lysed with 60 ul of lysis buffer. Collected lysates were incubated for 30 min on ice and collect supernatant through centrifugation at 12,000 rpm for 10 min at 4° C. The protein in lysates were quantified with BCA protein quantification kit (Pierce, Cat #23227) following manufacture's protocol. Cell lysates were diluted into 1 ug/ul of concentration with lysis buffer. 20 ug of protein was loaded to each well of 4˜12% Bis-Tris gel (Invitrogen, Cat #NP0336BOX) with MOPS running buffer (Invitrogen, Cat #NP0001). The proteins were transferred from gel to membrane and incubated with primary antibody as followed at 4° C. overnight; CDK7 (CST, Cat #2090S) and β-actin (Santa Cruz, Cat #sc-47778) 1:20,000. The signals were developed and acquired with ImageQuant™ LAS 4000.

CDK5 = molecular target: T5, CDK5 (Homo sapiens, UniProt Q00535); experiment: Binding assay (FRET, LanthaScreen Eu, Tracer236) for CDK5; conditions: for IC50: read-out: CDK5 IC50 (enzyme binding assay)
T5 construct: His; purchased Invitrogen PR8543B
Procedure: as §1, §2

T1 sequence (P50613 whole entry): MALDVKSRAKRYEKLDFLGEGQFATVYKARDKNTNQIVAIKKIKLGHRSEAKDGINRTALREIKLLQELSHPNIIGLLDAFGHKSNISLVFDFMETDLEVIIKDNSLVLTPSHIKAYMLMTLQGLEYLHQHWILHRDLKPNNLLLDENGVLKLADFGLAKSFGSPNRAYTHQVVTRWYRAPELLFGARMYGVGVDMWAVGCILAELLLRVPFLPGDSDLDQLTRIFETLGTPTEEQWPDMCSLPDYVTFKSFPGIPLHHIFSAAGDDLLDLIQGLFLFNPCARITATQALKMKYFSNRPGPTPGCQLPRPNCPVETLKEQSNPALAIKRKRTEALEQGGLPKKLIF
T1 sequence (P51946 whole entry partner): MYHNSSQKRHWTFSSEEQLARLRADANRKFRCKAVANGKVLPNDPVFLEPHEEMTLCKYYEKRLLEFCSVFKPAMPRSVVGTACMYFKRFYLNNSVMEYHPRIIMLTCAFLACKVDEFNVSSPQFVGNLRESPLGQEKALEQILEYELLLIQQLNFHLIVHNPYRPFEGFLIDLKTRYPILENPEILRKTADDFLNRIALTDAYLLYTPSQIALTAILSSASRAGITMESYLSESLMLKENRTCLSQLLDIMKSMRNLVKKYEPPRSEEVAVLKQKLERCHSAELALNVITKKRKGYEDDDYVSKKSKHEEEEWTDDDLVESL
T1 sequence (P51948 whole entry partner): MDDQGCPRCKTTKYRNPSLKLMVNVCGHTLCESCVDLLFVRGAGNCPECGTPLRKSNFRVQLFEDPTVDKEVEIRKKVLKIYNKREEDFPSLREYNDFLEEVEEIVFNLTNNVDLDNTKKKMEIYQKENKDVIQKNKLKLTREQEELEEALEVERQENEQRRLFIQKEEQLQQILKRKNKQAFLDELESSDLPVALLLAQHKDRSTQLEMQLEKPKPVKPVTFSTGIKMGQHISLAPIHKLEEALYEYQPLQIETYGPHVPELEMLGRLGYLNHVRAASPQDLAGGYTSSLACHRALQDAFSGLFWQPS
T2 sequence (P06493 whole entry): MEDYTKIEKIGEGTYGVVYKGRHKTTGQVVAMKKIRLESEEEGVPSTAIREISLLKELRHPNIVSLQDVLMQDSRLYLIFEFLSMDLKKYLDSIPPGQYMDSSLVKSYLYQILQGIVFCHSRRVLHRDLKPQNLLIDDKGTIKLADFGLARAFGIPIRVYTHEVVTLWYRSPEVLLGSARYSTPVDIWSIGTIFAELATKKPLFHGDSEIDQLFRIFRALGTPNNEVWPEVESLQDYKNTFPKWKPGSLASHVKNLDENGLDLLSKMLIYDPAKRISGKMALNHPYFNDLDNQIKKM
T2 sequence (P14635 whole entry partner): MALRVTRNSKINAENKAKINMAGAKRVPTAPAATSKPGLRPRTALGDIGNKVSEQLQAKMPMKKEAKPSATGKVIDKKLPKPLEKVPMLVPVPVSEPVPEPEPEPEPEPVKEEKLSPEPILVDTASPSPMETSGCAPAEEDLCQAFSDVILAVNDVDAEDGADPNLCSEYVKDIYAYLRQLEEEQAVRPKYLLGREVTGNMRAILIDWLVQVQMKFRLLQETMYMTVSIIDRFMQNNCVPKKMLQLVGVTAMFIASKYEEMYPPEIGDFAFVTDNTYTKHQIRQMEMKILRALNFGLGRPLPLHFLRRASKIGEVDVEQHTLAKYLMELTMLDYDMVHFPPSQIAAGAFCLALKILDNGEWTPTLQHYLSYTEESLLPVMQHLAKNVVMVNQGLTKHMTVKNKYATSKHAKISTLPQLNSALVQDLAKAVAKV
T5 sequence (Q00535 whole entry): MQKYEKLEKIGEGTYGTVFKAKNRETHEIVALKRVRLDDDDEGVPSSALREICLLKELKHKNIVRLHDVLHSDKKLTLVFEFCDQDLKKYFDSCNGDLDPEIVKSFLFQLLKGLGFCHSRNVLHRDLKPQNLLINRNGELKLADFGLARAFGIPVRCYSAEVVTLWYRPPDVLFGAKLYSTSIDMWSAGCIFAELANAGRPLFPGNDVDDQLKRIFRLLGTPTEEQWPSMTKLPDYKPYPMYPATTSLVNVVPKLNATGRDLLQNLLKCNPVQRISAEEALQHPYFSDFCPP
T5 sequence (Q15078 99-307 partner limits assumed): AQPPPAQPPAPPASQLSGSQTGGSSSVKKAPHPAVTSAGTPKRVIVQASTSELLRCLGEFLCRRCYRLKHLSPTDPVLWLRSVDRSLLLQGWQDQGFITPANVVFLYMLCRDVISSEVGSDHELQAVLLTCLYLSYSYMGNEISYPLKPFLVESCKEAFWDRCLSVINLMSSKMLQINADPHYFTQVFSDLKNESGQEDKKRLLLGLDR
T4 sequence (P50613 whole entry): as the sequence (P50613 whole entry) above

SMILES | IC50 (CDK7/CycH/MNAT1) [µM] | CDK1/CDK7: Selectivity of CDK7 inhibition over CDK1 inhibition (CDK1) | IC50 (CDK1) [µM] | CDK2/CDK7: Selectivity of CDK7 inhibition over CDK2 inhibition (CDK2) | IC50 (CDK2) [µM] | Compound concentration that caused 50% CDK7 protein degradation in A2780 cells (DC50, nM) (CDK7 protein) | DC50 (CDK7 protein; read-out: Compound concentration that caused 50% CDK7 protein degradation in A2780 cells (DC50)) [µM] | CDK5/CDK7: Selectivity of CDK7 inhibition over CDK5 inhibition (CDK5) | IC50 (CDK5) [µM]
CC(C)c1cnn2c(NCc3ccccc3-c3nccc4cc(NCCOCCOCCNC(=O)CNc5cccc6c5C(=O)N(C5CCC(=O)NC5=O)C6=O)ccc34)nc(O[C@@H]3CCCNC3)nc12 (stereo partly drawn) [Compound 7] | ≤ 0.1 | A (A indicates [fold] > 500) | > 1 | A (A indicates [fold] > 500) | > 1 | B or A | 0.1 to 1 | A (A indicates [fold] > 500) | > 1
CC(C)c1cnn2c(NCc3ccccc3-c3nccc4cc(NCCOCCOCCOCCNC(=O)CNc5cccc6c5C(=O)N(C5CCC(=O)NC5=O)C6=O)ccc34)nc(O[C@@H]3CCCNC3)nc12 (stereo partly drawn) [Compound 8] | ≤ 0.1 | A (A indicates [fold] > 500) | > 1 | A (A indicates [fold] > 500) | > 1 | – | – | B (B indicates 50 < [fold] ≤ 500) | > 1
CN[C@@H](C)C(=O)N[C@H](C(=O)N1CCC[C@H]1c1nc(C(=O)c2cccc(OCCOCCOCCNc3ccc4c(-c5ccccc5CNc5nc(O[C@@H]6CCCNC6)nc6c(C(C)C)cnn56)nccc4c3)c2)cs1)C1CCCCC1 [Compound 18] | ≤ 0.1 | A (A indicates [fold] > 500) | > 1 | A (A indicates [fold] > 500) | > 1 | – | – | A (A indicates [fold] > 500) | > 1
Cc1ncsc1-c1ccc(CNC(=O)[C@@H]2C[C@@H](O)CN2C(=O)[C@@H](NC(=O)C2(F)CC2)C(C)(C)C)c(OCCOCCOCCOCCOCCOCCNc2ccc3c(-c4ccccc4CNc4nc(O[C@@H]5CCCNC5)nc5c(C(C)C)cnn45)nccc3c2)c1 [Compound 23] | ≤ 0.1 | A (A indicates [fold] > 500) | > 1 | A (A indicates [fold] > 500) | > 1 | – | – | A (A indicates [fold] > 500) | > 1
Cc1ncsc1-c1ccc(CNC(=O)[C@@H]2C[C@@H](O)CN2C(=O)[C@@H](NC(=O)C2(F)CC2)C(C)(C)C)c(OCCN2CCC(N3CCC(CNc4ccc5c(-c6ccccc6CNc6nc(N[C@@H]7CCCNC7)nc7c(C(C)C)cnn67)nccc5c4)CC3)CC2)c1 [Compound 29] | ≤ 0.1 | B (B indicates 50 < [fold] ≤ 500) | > 1 | B (B indicates 50 < [fold] ≤ 500) | > 1 | – | – | B (B indicates 50 < [fold] ≤ 500) | > 1
CC(C)c1cnn2c(NCc3ccccc3-c3nccc4cc(N5CCN(CC6CCN(c7cc8c(cc7F)C(=O)N(C7CCC(=O)NC7=O)C8=O)CC6)CC5)ccc34)nc(O[C@@H]3CCCNC3)nc12 (stereo partly drawn) [Compound 35] | 0.1 to 1 | B (B indicates 50 < [fold] ≤ 500) | > 1 | B (B indicates 50 < [fold] ≤ 500) | > 1 | – | – | B (B indicates 50 < [fold] ≤ 500) | > 1
CC(C)c1cnn2c(NCc3ccccc3-c3nccc4cc(N5CCC(CN6CCN(c7cc8c(cc7F)C(=O)N(C7CCC(=O)NC7=O)C8=O)CC6)CC5)ccc34)nc(O[C@@H]3CCCNC3)nc12 (stereo partly drawn) [Compound 36] | ≤ 0.1 | B (B indicates 50 < [fold] ≤ 500) | > 1 | B (B indicates 50 < [fold] ≤ 500) | > 1 | – | – | B (B indicates 50 < [fold] ≤ 500) | > 1
